Experiments:
rats with renal ischemia = assay: Rat renal ischemia-reperfusion injury (IRI) model of acute renal failure, renal clearance study; assay type: in vivo, Sprague Dawley rats; details: for diuretic and natriuretic responses and GFR in the ischemic kidney: summary statement
Experimental: (§1) (ii) Animals. Studies were conducted on Sprague Dawley rats (Harlan Laboratories Ltd., Jerusalem, Israel), weighing 290˜330 g. The animals were kept in a temperature-controlled room, and were fed standard rat chow containing 0.5% NaCl and tap water ad libitum. All experiments were performed according to the guidelines of the Technion Committee for Supervision of Animal Experiments (Haifa, Israel). Rats were subjected to one of the experimental protocols, described in Examples 1 and 2 hereinafter.
(§2) (iii) Chemical analysis. Sodium concentration in plasma and urine was determined by flame photometry (model IL 943, Instrumentation Laboratory). Inulin and creatinine concentrations were determined by the colorimetric anthrone method. Glomerular filtration rate (GFR) was equated with the clearance of inulin or creatinine.
For this purpose, the effects of either rasagiline or S-(−)-N-propargyl-1-aminoindan on renal clearance parameters, i.e., glomerular filtration rate (GFR), absolute and fractional sodium excretion rates (UNaV and FENa, respectively), and urinary flow (V) were studied in rats that underwent renal ischemia. Rats that underwent the same procedure, but were treated with vehicle, served as controls.
The surgical procedure for the induction of renal ischemia has been previously described (Sela et al., 1992). Briefly, the animals were anesthetized with Inactin (100 mg/kg, i.p.), placed on a thermo-regulated (37° C.) surgical table and prepared for hemodynamic and clearance studies (Brodsky et al., 1998). After tracheotomy, polyethylene tubes (PE50) were inserted into the carotid artery, jugular vein and urinary bladder for blood pressure monitoring, infusion of various solutions and urine collections, respectively. A solution of 2% inulin in 0.9% saline was infused throughout the experiment at a rate of 1.0% of body weight per hour. […] Then, the left kidney was exposed and the renal artery was clamped for forty-five minutes of ischemia, followed by 60 min of reperfusion. The right kidney served as the control, for each animal. Thirty minutes prior to the induction of the renal ischemia, animals were treated with either rasagiline or S-(−)-N-propargyl-1-aminoindan administered as a bolus injection (1.0 mg/kg, I.V.), followed by a sustained infusion of the drugs at a dose of 2 mg/kg/h throughout the whole experiment. Animals treated with saline served as controls. Then, two additional clearance periods were obtained under the influence of the drug. Urine volume was determined gravimetrically. Blood samples were obtained in the midst of every 2nd clearance period.

rats with CHF = assay: Chronic administration to rats with experimental congestive heart failure (aortocaval fistula), renal excretory parameters; assay type: in vivo, Sprague Dawley rats; details: for diuretic and natriuretic responses in rats with congestive heart failure: summary statement
Experimental: as §1, §2
Following surgery, the rats were allowed to recover and housed in individual metabolic cages for measurements of daily urine volume and urinary sodium/potassium excretion.
Rasagiline or S-(−)-N-propargyl-1-aminoindan were dissolved in drinking water and given orally at a dose of 1 or 7.5 mg/kg/day for 5 days to normal rats. Following this period, the animals were subjected either to sham operation (n=6) or to creation of aortocaval fistula (ACF) (n=6) as described above. These experimental groups were treated daily by gavage with 1 or 7.5 mg/kg of rasagiline or S-(−)-N-propargyl-1-aminoindan for additional 14 days, and their daily urine volume, sodium and potassium excretion were measured. Rats treated with vehicle (water) served as controls. After completion of the treatment period, animals from the different experimental groups were killed by decapitation and their blood was collected in pre-cooled tubes. Rats with sham operation or animals with arterio-venous fistula treated with vehicle served as controls.

With `C#CCN[C@@H]1CCc2ccccc21` [rasagiline, R(+)-N-propargyl-1-aminoindan, reference compound] the “diuretic and natriuretic responses and GFR in the ischemic kidney” value (rats with renal ischemia; ischemic kidney) was “diuretic and natriuretic responses accompanied by improved GFR” and the “diuretic and natriuretic responses in rats with congestive heart failure” value (rats with CHF) was “significant diuretic and natriuretic responses”.
For `C#CCN[C@H]1CCc2ccccc21` [S-(−)-N-propargyl-1-aminoindan], the “glomerular filtration rate (GFR), function of the ischemic kidney” value (rats with renal ischemia; ischemic (left) kidney, 1.0 mg/kg I.V. bolus 30 min prior to ischemia, then 2 mg/kg/h infusion, 45 min ischemia, 60 min reperfusion, FIG. 1B) was “improved the function of the ischemic kidney”, the “fractional excretion of Na+ (FENa) by ischemic kidney” value (rats with renal ischemia; ischemic kidney, 1.0 mg/kg I.V. bolus, then 2 mg/kg/h infusion, FIG. 2B) was “enhanced FENa by ischemic kidney more than rasagiline” and the “fractional excretion of Na+ (FENa) by normal kidney” value (rats with renal ischemia; normal kidney, 1.0 mg/kg I.V. bolus, then 2 mg/kg/h infusion, FIG. 2A) was “increased the fractional excretion of Na^+ (FENa) by normal kidney”. The “diuretic and natriuretic responses and GFR in the ischemic kidney” value (rats with renal ischemia; ischemic kidney) was “diuretic and natriuretic responses accompanied by improved GFR”, the “GFR (creatinine clearance test)” value (rats with CHF; rats with CHF, 1 or 7.5 mg/kg/day by gavage for 2 weeks, FIG. 6) was “enhanced GFR” and the “urinary flow rate (daily urine volume)” value (rats with CHF; rats with CHF, 1 or 7.5 mg/kg/day orally, 14 days after fistula, FIGS. 3A-3B) was “increased the urinary flow rate”. The “absolute (daily) urinary sodium excretion” value (rats with CHF; rats with CHF, 1 or 7.5 mg/kg/day orally, 14 days, FIG. 4) was “markedly enhanced”, the “cumulative urinary sodium excretion” value (rats with CHF; rats with CHF, 1 or 7.5 mg/kg/day orally, 14 days, FIG. 5) was “markedly enhanced” and the “diuretic and natriuretic responses in rats with congestive heart failure” value (rats with CHF) was “significant diuretic and natriuretic responses”.
